From patent US20230034359A1, “GENERATION OF MATURE KUPFFER CELLS” (AGENCY FOR SCIENCE, TECHNOLOGY AND RESEARCH, priority 2018, published 2023)
Values belong to the compound of their own block, whether it stands above or below them.

Legend:
[1] = tested on: pHeps in co-culture with NL-Mφ; type: cell-based, human
Procedure: (§1) For co-cultures, NL-Mφ, pKCs or iKCs were seeded at a density of 12,000 to 15,000 cells per well on Collagen I-coated 96-well plates. The cells were seeded in their respective media for 24 hours. Following cell attachment, medium was removed and iHeps or pHeps were seeded at a density of 2.5 times the density of the NL-Mφ/pKCs/iKCs in William's E media containing supplemental cocktail B. In some experiments, Advanced DMEM with supplement cocktail B (Media A) was used. The matching hepatocyte mono-culture controls were seeded in the same media and at the same density as the co-cultures.
(§2) Cell viability of differentiated hepatocytes was measured 24 hours after treatment with drugs using Alamar Blue® cell viability assay (Life Technologies) according to manufacturer's instructions. The following drugs were used for the cell viability assays: Acetaminophen, Trovafloxacin and Levofloxacin (all drugs from Sigma). Stock solutions of drugs were prepared in DMSO and then diluted in media to obtain desired working concentrations. Controls were treated with solvent alone (in absence of test compounds) and considered as 100% viability value.

[2] = Alamar Blue cell viability, pHeps-pKCs co-culture; type: cell-based, human; conditions: human, pHeps in co-culture with pKCs
Procedure: as §1, §2

[3] = Alamar Blue cell viability, pHeps-iKCs co-culture; type: cell-based, human; conditions: human, pHeps in co-culture with iKCs; 100 μM, pHeps-iKCs co-culture
Procedure: as §1, §2

[4] = Alamar Blue cell viability, pHeps mono-culture; type: cell-based, human; conditions: human, pHeps mono-culture
Procedure: as §1, §2

[5] = tested on: pHeps; assay: LPS-induced cytokine production (ELISA) in pHeps; type: cell-based, human
Procedure: (§3) Interleukin-6 (IL-6) and Tumor necrosis factor alpha (TNFα) levels in the media were measured using human IL-6 and TNFα enzyme-linked immunosorbent assay (ELISA) kits (Abcam) according to manufacturer's instructions.

[6] = tested on: NL-Mφ; assay: LPS-induced cytokine production (ELISA) in NL-Mφ; type: cell-based, human
Procedure: as §3

[7] = tested on: pKCs; assay: LPS-induced cytokine production (ELISA) in pKCs; type: cell-based, human
Procedure: as §3

[8] = tested on: KCs; conditions: reference [46], cited from earlier work
[9] = tested on: iKCs; assay: LPS-induced cytokine production (ELISA) in iKCs; type: cell-based, human; set-up: TNFα production upon LPS stimulation: unit not given here
Procedure: as §3

[10] = tested on: iHeps in co-culture with iKCs; assay: in vitro; type: cell-based, human
Procedure: as §1, §2

[11] = tested on: pHeps in co-culture with pKCs; assay: Alamar Blue cell viability, pHeps-pKCs co-culture; type: cell-based, human; conditions: Homo sapiens, 24 h
Procedure: as §1, §2

[12] = tested on: pHeps in co-culture with iKCs; assay: Alamar Blue cell viability, pHeps-iKCs co-culture; type: cell-based, human; conditions: Homo sapiens, 24 h
Procedure: as §1, §2

[13] = tested on: iHeps mono-culture; assay: Alamar Blue cell viability, iHeps mono-culture; type: cell-based, human; conditions: Homo sapiens; iHeps mono-culture
Procedure: as §1, §2

[14] = tested on: pHeps mono-culture; assay: Alamar Blue cell viability, pHeps mono-culture; type: cell-based, human; conditions: Homo sapiens, 24 h
Procedure: as §1, §2

[15] = tested on: BSEP, MDR1 and MRP1 mRNA in iHeps-iKCs co-culture; assay: qPCR of bile transporter genes in cholestasis model; type: cell-based, human; conditions: CPZ treatment
Procedure: RNA was isolated using RNeasy Micro-kit (Qiagen, Hilden, Germany), RNA amount was determined using a NanoDrop™ ND-1000 Spectrophotometer (Life Technologies) and RNA was converted to cDNA using iScript cDNA synthesis kit (Bio-Rad Laboratories, Hercules, Calif., USA). 7000 Fast Real-Time PCR System (Applied Biosystems, Foster City, Calif., USA) was used for qPCR using primers commercially obtained from GeneCopoeia, Inc.
(Rockville, Md., USA). The expression levels of all marker genes were normalized to that of glyceraldehyde-3-phosphate dehydrogenase (GAPDH).
(§4) Cells were incubated with 10 μM Fluorescein diacetate (FDA) and incubated for 30 minutes. The FDA-containing medium was removed and the cells were washed thrice with medium to remove any residual FDA. Images of bile acid accumulation were acquired using Olympus BX-DSU and quantified using Image J software and normalized to untreated control.

[16] = tested on: iHeps mono-culture; assay: Cholestasis model, mono-culture control; type: cell-based, human; conditions: CPZ treatment
Procedure: as §4

[17] = tested on: iHeps-iKCs co-culture; assay: Bile acid accumulation (FDA); type: cell-based, human; conditions: 100 ng/ml LPS and 10 μM CPZ, 24 hours; versus untreated control
Procedure: as §4

[18] = tested on: iHeps-iKCs co-culture; assay: Cytokine production (ELISA) in cholestasis model; type: cell-based, human; conditions: 100 ng/ml LPS and 10 μM CPZ, 24 hours
Procedure: as §3, §4

[19] = in vitro; type: cell-based, human; conditions: human
Procedure: as §1, §2

[20] = Alamar Blue cell viability, iHeps mono-culture; type: cell-based, human; conditions: human, iHeps mono-culture (stem-cell derived)
Procedure: as §1, §2

[21] = 100 ng/ml LPS for 16 hours, versus no LPS

Compound: N[C@@H]1[C@H]2CN(c3nc4c(cc3F)c(=O)c(C(=O)O)cn4-c3ccc(F)cc3F)C[C@@H]12 [Trovafloxacin]
cell viability, co-culture versus mono-culture [1]: No difference in cell viability
viability at 24 h, 100 µM ([2]; 100 μM, pHeps-pKCs co-culture): 53.8%
viability at 24 h, 100 µM [3]: 55.8%
viability at 24 h, 100 µM ([4]; 100 μM): 73.8%

Compound: lipopolysaccharide [LPS]
TNFα production upon LPS activation [5]: below detectable levels
fold increase in IL-6 production [6, 21]: 103 folds
fold increase in TNFα production ([6]; 100 ng/ml LPS, level without LPS not detectable): > 1000 folds
IL-6 production upon LPS stimulation [7]: 2018 pg/mL
IL-6 level, LPS-treated ([7]; 100 ng/ml LPS for 16 hours): 3420 pg/million cells/24 h
fold increase in IL-6 production [7, 21]: 25 folds
fold increase in TNFα production [7, 21]: 35 folds
TNFα production upon LPS stimulation ([8]; KCs): 4000 pg/mL
IL-6 production upon LPS stimulation [8]: 800 pg/mL
IL-6 production upon LPS stimulation [9]: 5200 pg/mL
TNFα production upon LPS stimulation [9]: 10,000
IL-6 level, LPS-treated ([9]; 100 ng/ml LPS for 16 hours): 5260 pg/million cells/24 h
fold increase in IL-6 production [9, 21]: 35 fold
fold increase in TNFα production [9, 21]: 33 folds

Compound: CC(=O)Nc1ccc(O)cc1 [APAP, Acetaminophen]
cell viability, donor-matched co-culture versus mono-culture [10]: no significant difference
IC50 ([10]; Homo sapiens, read-out: IC50 (cell viability)): 27 mM
cell death, co-culture versus pHeps mono-culture [1]: No difference in cell death
IC50 [11]: 12.5 mM
IC50 [12]: 25 mM
IC50 [13]: 54 mM
IC50 [14]: 45 mM

bile acid accumulation, cytokine production and reduction in transporter gene expression [16]: not in mono-culture
bile acid accumulation [17]: Significant bile acid accumulation
Compound: CN(C)CCCN1c2ccccc2Sc2ccc(Cl)cc21 [CPZ, Chlorpromazine]
mRNA expression of bile salt export pump (BSEP), fold change to untreated control [15]: 0.3±0.1 folds
mRNA expression of multidrug resistance (MDR1), fold change to untreated control [15]: 0.4±0.2 folds
mRNA expression of multidrug resistance-associated protein 1 (MRP1), fold change to untreated control [15]: 0.5±0.2 folds
IL-6 production, fold compared to untreated control [18]: 4.5 fold
TNFα production, fold compared to untreated control [18]: 6.5 fold

Compound: C[C@H]1COc2c(N3CCN(C)CC3)c(F)cc3c(=O)c(C(=O)O)cn1c23 [Levofloxacin]
viability at 24 h [19]: > 90%
viability at 24 h [2]: > 90%
viability at 24 h [20]: > 90%
viability at 24 h [4]: > 90%
